One may read the IC50 as the concentration that inhibits the measured activity by half.

The values that follow come from ChEMBL document CHEMBL4004868, “Synthesis and in vitro biological evaluation of novel quinazoline derivatives” (Bioorg Med Chem Lett, 2017).

The structures appear in SMILES notation. Active and inactive are the calls of the source. The rule behind the calls is not given here. Where only a bound is given, the exact number is not on record here.

One data set concerns SW480. Description: Cytotoxicity against human SW480 cells assessed as decrease in cell viability after 72 hrs by MTT assay. Type of data set: functional. In general terms: Formazan colour is commonly taken as a measure of viable cells.
Another data set has as its system A-431. Description: Cytotoxicity against human A431 cells assessed as decrease in cell viability after 72 hrs by MTT assay. Type of data set: functional.
For the next data set, the system named is NCI-H1975. In words: Cytotoxicity against human NCI-H1975 cells assessed as decrease in cell viability after 72 hrs by MTT assay. Type of data set: functional.
For data set [1], the system named is A549. Description: Cytotoxicity against human A549 cells assessed as decrease in cell viability after 72 hrs by MTT assay. Type of data set: functional.
For data set [2], the target named is T1, Epidermal growth factor receptor (Homo sapiens, UniProt P00533). Description: Inhibition of wild type recombinant EGFR (unknown origin) using poly (Glu,Tyr) 4:1 as substrate after 60 mins by ELISA. On the technique in general: An ELISA detects its analyte on a solid surface through an enzyme-linked reagent.
In data set [3] the test system is A549. In words: Effect on total EGFR levels in human A549 cells at 1 to 50 uM after 2 hrs by Western blot method. Type of data set: ADME, cell-based. Conditions: a549, 2 h.
The test system of data set [4] is A549. In words: Effect on total Akt levels in human A549 cells at 1 to 50 uM after 2 hrs by Western blot method. Conditions: a549, 2 h. Type of data set: ADME, cell-based.
Data set [5] has as its system A549. Description: Effect on total GAPDH levels in human A549 cells at 1 to 50 uM after 2 hrs by Western blot method. Type of data set: ADME, cell-based. Conditions: a549, 2 h. In general terms: In western blotting, separated proteins are transferred to a membrane and probed.
The target in data set [6] is T1, Epidermal growth factor receptor. Description: Inhibition of EGFR phosphorylation at Tyr residue in human A549 cells at 1 uM preincubated for 2 hrs followed by EGF induction measured after 10 mins by Western blot method. Type of data set: cell-based.
Data set [7] has the same target. Description: Inhibition of EGFR in human NCI-H1975 cells assessed as decrease in Erk1/2 phosphorylation at T202/204 at 50 uM preincubated for 2 hrs followed by EGF induction measured after 10 mins by Western blot method. Type of data set: cell-based.
Data set [8] has the same target. Description: Inhibition of EGFR in human A549 cells assessed as decrease in Akt phosphorylation at S473 at 1 uM preincubated for 2 hrs followed by EGF induction measured after 10 mins by Western blot method. Type of data set: cell-based.
Data set [9] shares this target. Description: Inhibition of EGFR in human NCI-H1975 cells assessed as decrease in Akt phosphorylation at S473 at 50 uM preincubated for 2 hrs followed by EGF induction measured after 10 mins by Western blot method. Type of data set: cell-based.
Data set [10] has the same target. In words: Inhibition of EGFR phosphorylation at Y1068 in human NCI-H1975 cells at 50 uM preincubated for 2 hrs followed by EGF induction measured after 10 mins by Western blot method. Type of data set: cell-based.
Data set [11] relates to A549. In words: Effect on total Erk levels in human A549 cells at 1 to 50 uM after 2 hrs by Western blot method. Conditions: a549, 2 h. Type of data set: ADME, cell-based.
The target of data set [12] is T1, Epidermal growth factor receptor. In words: Inhibition of EGFR phosphorylation at Y1068 in human A549 cells at 1 uM preincubated for 2 hrs followed by EGF induction measured after 10 mins by Western blot method. Type of data set: cell-based.
Data set [13] has the same target. Description: Inhibition of EGFR in human A549 cells assessed as decrease in ERK1/2 phosphorylation at T202/204 at 1 uM preincubated for 2 hrs followed by EGF induction measured after 10 mins by Western blot method. Type of data set: cell-based.
For data set [14] the target is unchanged. Description: Inhibition of EGFR phosphorylation at Tyr residue in human NCI-H1975 cells at 50 uM preincubated for 2 hrs followed by EGF induction measured after 10 mins by Western blot method. Type of data set: cell-based.

T1 sequence (P00533 whole entry): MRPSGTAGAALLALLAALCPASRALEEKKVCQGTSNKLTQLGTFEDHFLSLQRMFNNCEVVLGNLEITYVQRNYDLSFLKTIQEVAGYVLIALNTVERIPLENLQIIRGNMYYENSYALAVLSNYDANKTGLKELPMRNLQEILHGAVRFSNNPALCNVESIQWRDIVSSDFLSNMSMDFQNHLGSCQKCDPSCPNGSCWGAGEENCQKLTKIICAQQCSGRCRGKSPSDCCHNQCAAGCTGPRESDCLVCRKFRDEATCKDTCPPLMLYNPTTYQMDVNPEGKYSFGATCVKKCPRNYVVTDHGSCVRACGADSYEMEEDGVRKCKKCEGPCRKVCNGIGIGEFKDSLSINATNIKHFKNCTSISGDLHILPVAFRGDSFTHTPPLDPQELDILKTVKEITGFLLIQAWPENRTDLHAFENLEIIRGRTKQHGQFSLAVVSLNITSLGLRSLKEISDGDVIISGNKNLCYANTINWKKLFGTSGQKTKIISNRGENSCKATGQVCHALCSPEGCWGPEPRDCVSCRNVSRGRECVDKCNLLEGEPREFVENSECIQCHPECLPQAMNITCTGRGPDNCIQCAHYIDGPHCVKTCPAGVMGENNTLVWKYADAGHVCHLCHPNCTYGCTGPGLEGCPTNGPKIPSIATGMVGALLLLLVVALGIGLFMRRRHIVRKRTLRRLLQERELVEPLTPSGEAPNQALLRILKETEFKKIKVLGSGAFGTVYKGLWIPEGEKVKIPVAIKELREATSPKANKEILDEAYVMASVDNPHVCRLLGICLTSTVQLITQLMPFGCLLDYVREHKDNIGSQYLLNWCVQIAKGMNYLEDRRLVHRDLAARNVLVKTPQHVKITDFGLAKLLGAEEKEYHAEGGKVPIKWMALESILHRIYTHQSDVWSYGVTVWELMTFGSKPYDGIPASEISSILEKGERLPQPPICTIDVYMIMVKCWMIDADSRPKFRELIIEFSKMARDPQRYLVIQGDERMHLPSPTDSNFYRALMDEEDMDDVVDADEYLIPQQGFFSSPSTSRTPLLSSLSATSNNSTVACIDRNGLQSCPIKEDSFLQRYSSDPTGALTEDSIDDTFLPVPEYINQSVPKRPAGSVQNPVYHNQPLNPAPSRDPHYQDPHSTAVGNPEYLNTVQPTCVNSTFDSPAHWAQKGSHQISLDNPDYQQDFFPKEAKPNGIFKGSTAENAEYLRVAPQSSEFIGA

Regarding `CC(=O)OCc1ccc(-c2ccc3ncnc(Nc4ccc(F)c(Cl)c4)c3c2)o1`, the IG50 in the data set with SW480 was 43.18 µM; in the data set with A-431, 10.75 µM; in the data set with NCI-H1975 it was 54.13 µM; in the data set with A549 [1], greater than 100 µM.

Take `CS(=O)(=O)CCNCc1ccc(-c2ccc3ncnc(Nc4ccc(F)c(Cl)c4)c3c2)o1`: the IG50 is 60.59 µM in the data set on SW480, 39.34 µM in the data set with A-431, 83.61 µM in the data set on NCI-H1975 and greater than 100 µM in the data set with A549 [1]. For the same molecule, the IC50 in data set [2] worked out at 24 nM.

`C/C=C/c1ccc(Nc2ncnc3ccc(-c4ccc(CO)o4)cc23)cc1`: the IG50 in the data set on SW480 is 51.25 µM; with A-431, 21.43 µM; in the data set on NCI-H1975 it was 37.93 µM; in the data set with A549 [1], 38.24 µM.

For the molecule `CS(=O)(=O)CCNCc1ccc(-c2ccc3ncnc(Nc4ccc(OCc5cccc(F)c5)c(Cl)c4)c3c2)o1` [LAPATINIB], the IG50 was 12.58 µM in the data set with SW480, 4.8 µM with A-431, 9.08 µM in the data set on NCI-H1975 and 14.9 µM in the data set with A549 [1].

In the case of `C#Cc1cccc(Nc2ncnc3ccc(-c4ccc(CO)o4)cc23)c1`, the IG50 with SW480 was greater than 100 µM; in the data set with A-431 it was 3.21 µM; in the data set with NCI-H1975 it was greater than 100 µM; in the data set on A549 [1], greater than 100 µM. In addition, in data set [2], the IC50 worked out at 15.7 nM.

In the case of `CC(=O)OCc1ccc(-c2ccc3ncnc(Nc4ccc(OCc5cccc(F)c5)c(Cl)c4)c3c2)o1`, the IG50 with SW480 was determined as 5.18 µM; in the data set on A-431, 8.33 µM; in the data set with NCI-H1975, 6.78 µM; in the data set on A549 [1] it was 5.49 µM.

Regarding `C#Cc1cccc(Nc2ncnc3ccc(-c4ccc(COC(C)=O)o4)cc23)c1`, the IG50 with SW480 came out at 14.97 µM; in the data set on A-431, 1.28 µM; in the data set on NCI-H1975, 5.4 µM; in the data set on A549 [1], 4.05 µM.

Take `C/C=C/c1ccc(Nc2ncnc3ccc(-c4ccc(COC(C)=O)o4)cc23)cc1`: the IG50 worked out at 11.18 µM in the data set with SW480, 5.53 µM in the data set with A-431, 40.85 µM in the data set on NCI-H1975 and 20.61 µM in the data set with A549 [1].

For `OCc1ccc(-c2ccc3ncnc(Nc4ccc(OCc5cccc(F)c5)c(Cl)c4)c3c2)o1`, the Activity result with A549 [3], with A549 [4], in the data set on A549 [5] and in the data set on A549 [11] was “Non-Toxic” throughout. Also, the IG50 with SW480 came out at 5.58 µM; in the data set on A-431 it was 3.64 µM; with NCI-H1975 it was 3.01 µM; in the data set with A549 [1], 7.35 µM. The IC50 in data set [2] was determined as 5.06 nM. Further, the inhibition entry in data set [6], in data set [7], in [8], in [9], in [10] and in data set [12] was “Active” throughout. Further, the inhibition result in data set [13] and in data set [14] was “Active” each time.

Regarding `C/C=C/c1ccc(Nc2ncnc3ccc(-c4ccc(CNCCS(C)(=O)=O)o4)cc23)cc1`, the IG50 with SW480 was 56.34 µM; in the data set on A-431, 37.56 µM; with NCI-H1975, greater than 100 µM; with A549 [1], 84.5 µM.

Regarding `OCc1ccc(-c2ccc3ncnc(Nc4ccc(F)c(Cl)c4)c3c2)o1`, the IG50 in the data set with SW480 was greater than 100 µM; in the data set on A-431 it was 3.91 µM; with NCI-H1975 it was greater than 100 µM; in the data set on A549 [1], greater than 100 µM.

On to `C#Cc1cccc(Nc2ncnc3ccc(-c4ccc(CNCCS(C)(=O)=O)o4)cc23)c1`, for which the IG50 is 13.38 µM in the data set with SW480, 5.78 µM with A-431, 14.92 µM in the data set with NCI-H1975 and 11.35 µM in the data set with A549 [1].
